Test results reported in patent US20250059174A1, “Pharmaceutical Compounds and Compositions as C-Kit Kinase Inhibitors” (Enanta Pharmaceuticals, Inc., priority 2023, published 2025).

How the values were obtained:
M-07e cells = assay: M-07e cellular assay (SCF-mediated cell proliferation); assay type: cell-based; details: Homo sapiens, 72 hours, CellTiter Glo
Procedure, shortened: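 Readout came from CellTiter Glo after 72 h of compound treatment in SCF (EC90)-stimulated, pre-starved M-07e cells at 37 °C.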

[1] = molecular target: Recombinant human c-KIT kinase (Homo sapiens (Human), UniProt P10721); assay: c-KIT kinase chemiluminescence assay (ADP-Glo); assay type: biochemical; details: ATP 50 μM
Procedure, shortened: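 ADP formed by c-KIT on polyEY over 2 h at RT (after 30 min enzyme preincubation; Tris pH 7.5, MgCl2, BSA, DTT buffer) was detected by ADP-Glo luminescence. IC50 and Hill slope were fitted to control-normalized activity across compound concentrations.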

Recombinant human c-KIT kinase, sequence (P10721 26-976): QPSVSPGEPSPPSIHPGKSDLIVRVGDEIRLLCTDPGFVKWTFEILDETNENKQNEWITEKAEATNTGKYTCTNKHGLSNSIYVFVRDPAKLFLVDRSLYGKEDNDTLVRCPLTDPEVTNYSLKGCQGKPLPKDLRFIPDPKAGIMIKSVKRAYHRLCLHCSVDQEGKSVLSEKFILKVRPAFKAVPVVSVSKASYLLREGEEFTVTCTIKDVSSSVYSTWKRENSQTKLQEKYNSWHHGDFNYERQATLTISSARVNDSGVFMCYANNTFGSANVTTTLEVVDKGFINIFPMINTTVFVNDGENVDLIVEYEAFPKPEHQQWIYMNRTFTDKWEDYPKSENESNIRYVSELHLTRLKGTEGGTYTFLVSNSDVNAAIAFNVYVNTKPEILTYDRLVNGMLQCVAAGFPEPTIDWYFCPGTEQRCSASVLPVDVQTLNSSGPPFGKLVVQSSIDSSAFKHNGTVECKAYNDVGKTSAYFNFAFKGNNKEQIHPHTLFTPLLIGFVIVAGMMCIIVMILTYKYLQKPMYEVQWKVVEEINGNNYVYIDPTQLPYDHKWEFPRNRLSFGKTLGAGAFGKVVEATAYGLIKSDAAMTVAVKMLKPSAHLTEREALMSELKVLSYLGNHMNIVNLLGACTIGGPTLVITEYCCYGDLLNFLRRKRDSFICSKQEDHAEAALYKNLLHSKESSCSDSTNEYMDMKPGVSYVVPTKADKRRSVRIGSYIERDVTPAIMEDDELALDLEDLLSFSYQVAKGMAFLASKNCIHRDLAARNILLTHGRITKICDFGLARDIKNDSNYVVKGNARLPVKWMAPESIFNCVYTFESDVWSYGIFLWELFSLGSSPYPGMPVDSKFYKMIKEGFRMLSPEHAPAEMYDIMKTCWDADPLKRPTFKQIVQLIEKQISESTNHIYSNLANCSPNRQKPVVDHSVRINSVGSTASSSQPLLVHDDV

Row | SMILES | IC50 [1] | EC50 (M-07e cells)
1 | Cc1ccc(-c2noc([C@H]3C[C@@H]3F)n2)cc1NC(=O)c1cnc(-c2ccc3c(c2)CC(=O)N3)o1 [Example 299] | < 100 nM | < 100 nM
2 | Cc1ccc(-c2noc([C@H]3C[C@@H](OC(F)F)C3)n2)cc1NC(=O)c1cnn2ccc(N3CC4(CCN(CC(F)F)C4)C3)cc12 [Example 248] | 100 to 1000 nM | < 100 nM
3 | Cc1ncc(-c2ccc(OC(F)(F)F)cn2)cc1NC(=O)c1cnn2ccc(N3CC4(C3)CC(O)(C(F)F)C4)cc12 [Example 333] | < 100 nM | < 100 nM
4 | Cc1ccc(-c2noc([C@H]3C[C@@H]3F)n2)cc1NC(=O)c1cnn2ccc(-c3ccc(F)cc3)cc12 [Example 148] | 100 to 1000 nM | 100 to 1000 nM
5 | Cc1ccc(-c2noc([C@H]3C[C@@H]3F)n2)cc1NC(=O)c1cnn2ccc(C=O)cc12 [Example 71] | < 100 nM | 100 to 1000 nM
6 | COc1ccn2ncc(C(=O)Nc3cc(-c4noc([C@H]5C[C@@H]5F)n4)ccc3C)c2c1 [Example 60] | < 100 nM | < 100 nM
7 | Cc1ccc(-c2noc([C@H]3C[C@@H]3F)n2)cc1NC(=O)c1cccnc1 [Example 3] | > 1000 nM | > 1000 nM
8 | Cc1ccc(-c2noc([C@H]3C[C@@H]3F)n2)cc1NC(=O)c1cnn2ccc(-c3cnc(C(C)(C)O)nc3)cc12 [Example 158] | 100 to 1000 nM | < 100 nM
9 | Cc1ccc(-c2noc([C@H]3C[C@@H]3F)n2)cc1NC(=O)c1cnn2cc(-c3cccnc3)ccc12 [Example 151] | < 100 nM | < 100 nM
10 | Cc1ccc(-c2noc([C@H]3C[C@@H]3F)n2)cc1NC(=O)c1cnn2ccc(N3CC4(CN(CC(F)F)C4)C3)cc12 [Example 212] | < 100 nM | < 100 nM
11 | Cc1ccc(-c2ncc(OC(F)F)cn2)cc1NC(=O)c1cnn2ccc(N3CC4(COC4)C3)cc12 [Example 338] | 100 to 1000 nM | < 100 nM
12 | Cc1ccc(-c2ncc3c(ccn3C(F)F)n2)cc1NC(=O)c1cnn2ccc(N3CC4(C3)CC(O)(C(F)F)C4)cc12 [Example 319] | < 100 nM | < 100 nM
13 | O=C(Nc1cc(-c2noc([C@H]3C[C@@H](OC(F)F)C3)n2)ccc1Cl)c1cnn2ccc(N3CC4(COC4)C3)cc12 [Example 265] | < 100 nM | < 100 nM
14 | Cc1ccc(-c2noc([C@H]3C[C@@H]3F)n2)cc1NC(=O)c1cnn(-c2cccc(N)c2)c1 [Example 74] | 100 to 1000 nM | > 1000 nM
15 | Cc1ccc(-c2noc([C@H]3C[C@@H]3F)n2)cc1NC(=O)c1cnn2ccc(CN3CCOCC3)cc12 [Example 70] | < 100 nM | 100 to 1000 nM
16 | Cc1ccc(-c2noc([C@H]3C[C@@H]3F)n2)cc1NC(=O)c1cnn(C)c1 [Example 35] | > 1000 nM | > 1000 nM
17 | Cc1sc(-c2cnc(C3CC3)nc2)cc1NC(=O)c1cnn2ccc(N3CC4(C3)CC(O)(C(F)F)C4)cc12 [Example 355] | 100 to 1000 nM | < 100 nM
18 | Cc1ccc(-c2noc([C@H]3C[C@@H]3F)n2)cc1NC(=O)c1cnn2cc(C3CC3)ccc12 [Example 56] | < 100 nM | 100 to 1000 nM
19 | Cc1ccc(-c2noc([C@H]3C[C@@H]3F)n2)cc1NC(=O)c1cnc(-c2cccc(NC(=O)OC(C)(C)C)n2)o1 [Example 306] | > 1000 nM | > 1000 nM

Row | SMILES | IC50 [1] | EC50 (M-07e cells)
20 | Cc1ccc(-c2noc([C@H]3C[C@@H]3F)n2)cc1NC(=O)c1cnn2cc(Cl)c(-c3c(C)nn(C(F)F)c3C)cc12 [Example 167] | > 1000 nM | > 1000 nM
21 | Cc1ccc(-c2noc([C@H]3C[C@@H]3F)n2)cc1NC(=O)c1cnn2ccc(N3CC4CC(C3)O4)cc12 [Example 194] | < 100 nM | < 100 nM
22 | Cc1ccc(-c2noc([C@H]3C[C@@H]3F)n2)cc1NC(=O)c1cnn2ccc(N3CC4(COC4)C3)cc12 [Example 43] | < 100 nM | < 100 nM
23 | Cc1ccc(-c2noc([C@H]3C[C@@H]3F)n2)cc1NC(=O)c1cnn2cc(-c3cn(CCO)nn3)ccc12 [Example 109] | < 100 nM | < 100 nM
24 | Cc1ccc(-c2noc([C@H]3C[C@@H]3F)n2)cc1NC(=O)c1cnn(-c2ccccc2)c1 [Example 23] | 100 to 1000 nM | 100 to 1000 nM
25 | Cc1ccc(-c2noc([C@H]3C[C@@H]3F)n2)cc1NC(=O)c1cnc(-c2ccc3[nH]ccc3c2)o1 [Example 293] | < 100 nM | < 100 nM
26 | Cc1ncc(-c2cn(C3CC3)nn2)cc1NC(=O)c1cnn2ccc(N3CC4(C3)CC(O)(C(F)F)C4)cc12 [Example 377] | 100 to 1000 nM | < 100 nM
27 | Cc1ccc(-c2noc([C@H]3C[C@@H](OC(F)(F)F)C3)n2)cc1NC(=O)c1cnn2cc(-c3cn(C(F)F)nn3)ccc12 [Example 263] | < 100 nM | < 100 nM
28 | Cc1ccc(-c2noc([C@H]3C[C@@H]3F)n2)cc1NC(=O)c1cnn2ccc(N3CC4(CN(C)C4)C3)cc12 [Example 202] | 100 to 1000 nM | 100 to 1000 nM
29 | Cc1ccc(-c2noc([C@H]3C[C@@H]3F)n2)cc1NC(=O)c1cnn2ccc(C3CC3)cc12 [Example 55] | < 100 nM | 100 to 1000 nM
30 | Cc1ncc(-c2ncc(OC(F)F)cn2)cc1NC(=O)c1cnn2ccc(N3CC4(C3)CC(O)(C(F)F)C4)cc12 [Example 316] | 100 to 1000 nM | 100 to 1000 nM
31 | Cc1ccc(-c2noc([C@H]3C[C@@H]3F)n2)cc1NC(=O)c1cnn2c1CCC2 [Example 36] | > 1000 nM | > 1000 nM
32 | Cc1ccc(-c2noc([C@H]3C[C@@H]3F)n2)cc1NC(=O)c1cnc(-c2cccc(N3CC4(COC4)C3)c2)o1 [Example 288] | 100 to 1000 nM | 100 to 1000 nM
33 | Cc1ccc(-c2noc([C@H]3C[C@@H]3F)n2)cc1NC(=O)c1cnn2cc(-c3cn(C45CC(F)(C4)C5)nn3)ccc12 [Example 125] | 100 to 1000 nM | < 100 nM
34 | COC(=O)N1CC(c2nc(-c3cnc(C)c(NC(=O)c4cnn5cc(-c6cn(C(F)F)nn6)ccc45)c3)no2)C1 [Example 132-16] | 100 to 1000 nM | 100 to 1000 nM
35 | Cc1ccc(-c2noc([C@H]3C[C@@H]3F)n2)cc1NC(=O)c1cnn2ccc(N3CC(O)(C(F)(F)F)C3)cc12 [Example 180] | < 100 nM | < 100 nM
36 | COC1(OC)CC2(CN(c3ccn4ncc(C(=O)Nc5cc(-c6noc([C@H]7C[C@@H]7F)n6)ccc5C)c4c3)C2)C1 [Example 226] | < 100 nM | < 100 nM
37 | Cc1ccc(-c2noc([C@H]3C[C@@H]3F)n2)cc1NC(=O)c1cnn2ccc(NC(=O)OC3CC3)cc12 [Example 94] | 100 to 1000 nM | 100 to 1000 nM
38 | Cc1ncc(-c2noc([C@H]3C[C@@H](OC(F)F)C3)n2)cc1NC(=O)c1cnn2ccc(N3CC4(COC4)C3)cc12 [Example 269] | 100 to 1000 nM | < 100 nM

Second part, led by results:

Row | IC50 [1] | SMILES | EC50 (M-07e cells)
39 | 100 to 1000 nM | COC(=O)N1C[C@H](c2nc(-c3cnc(C)c(NC(=O)c4cnn5ccc(N6CC7(C6)CC(O)(C(F)F)C7)cc45)c3)no2)[C@H]1C [Example 281-14] | 100 to 1000 nM
40 | < 100 nM | COC(=O)N1CCC(c2nc(-c3ccc(C)c(NC(=O)c4cnn5ccc(N6CC7(C6)CC(O)(C(F)F)C7)cc45)c3)no2)C1 (stereo not shown) [Example 281-108] | < 100 nM
41 | > 1000 nM | Cc1cc(C)n(-c2ncc(C(=O)Nc3cc(-c4noc([C@H]5C[C@@H]5F)n4)ccc3C)o2)n1 [Example 308-6] | > 1000 nM
42 | 100 to 1000 nM | Cc1cc(F)c(-c2noc([C@H]3C[C@@H]3F)n2)cc1NC(=O)c1cnc(-c2ccc3[nH]ncc3c2)o1 [Example 308-11] | 100 to 1000 nM
43 | 100 to 1000 nM | Cc1ccc(-c2noc([C@H]3C[C@@H]3F)n2)cc1NC(=O)c1cnc(-c2ccc3c(c2)OC(C)(C)C(=O)N3)o1 [Example 308-25] | 100 to 1000 nM
44 | < 100 nM | Cc1ccc(-c2noc([C@H]3C[C@@H]3F)n2)cc1NC(=O)c1cnc(-c2ccc3[nH]nc(C)c3c2)o1 [Example 308-21] | < 100 nM
45 | 100 to 1000 nM | Cc1ncc(-c2noc([C@H]3CN(C(=O)C4(F)CC4)[C@@H]3C)n2)cc1NC(=O)c1cnn2ccc(N3CC4(C3)CC(O)(C(F)F)C4)cc12 [Example 281-15] | 100 to 1000 nM
46 | > 1000 nM | Cc1ccc(-c2noc([C@H]3C[C@@H]3F)n2)cc1NC(=O)c1cnc(-c2ccc(-n3cccn3)cc2)o1 [Example 308-13] | > 1000 nM
47 | 100 to 1000 nM | Cc1ncc(-c2noc(C3C[C@@H]3C(F)F)n2)cc1NC(=O)c1cnn2ccc(N3CC4(COC4)C3)cc12 (stereo partly shown) [Example 281-60] | 100 to 1000 nM
48 | < 100 nM | Cc1ncc(-c2noc([C@@H]3CN(CC(F)(F)F)[C@H]3C)n2)cc1NC(=O)c1cnn2ccc(N3CC4(C3)CC(O)(C(F)F)C4)cc12 [Example 281-12] | 100 to 1000 nM
49 | < 100 nM | Cc1ccc(-c2noc([C@H]3C[C@@H](OC(F)(F)F)C3)n2)cc1NC(=O)c1cnn2ccc(N3CC4(C3)CC(O)(C(F)(F)F)C4)cc12 [Example 281-23] | < 100 nM
50 | 100 to 1000 nM | Cc1ccc(-c2noc([C@H]3C[C@@H]3F)n2)cc1NC(=O)c1cnc(-c2ccc3c(c2)oc(=O)n3C)o1 [Example 308-35] | 100 to 1000 nM
51 | 100 to 1000 nM | Cc1ccc(-c2noc(C3CCN(C(=O)[C@H]4C[C@@H]4F)CC3)n2)cc1NC(=O)c1cnn2ccc(N3CC4(C3)CC(O)(C(F)F)C4)cc12 [Example 281-97] | 100 to 1000 nM
52 | < 100 nM | COC(=O)N1CCC(c2nc(-c3ccc(C)c(NC(=O)c4cnn5ccc(N6CC7(COC7)C6)cc45)c3)no2)CC1 [Example 281-132] | < 100 nM
53 | > 1000 nM | Cc1sc(-c2noc(C3(F)CN(C(=O)[C@H]4C[C@@H]4F)C3)n2)cc1NC(=O)c1cnn2ccc(N3CC4(C3)CC(O)(C(F)F)C4)cc12 [Example 281-111] | 100 to 1000 nM
